# Assay results published in ChEMBL document CHEMBL1138574, “Regioselective synthesis and stereochemical structure of anti-tumor active dispiro[3H-indole-3,2'-pyrrolidine-3',3''-piperidine]-2(1H),4''-diones” (2009).
# Columns and labels:
# Assay type in all cases: functional
# A549 = test: Antitumor activity against human A549 cells assessed as cell growth at 10 uM after 48 hrs by sulforhodamine B assay; settings: A549, 48 h, read-out: Activity
# HOP-92 = test: Antitumor activity against human HOP92 cells assessed as cell growth at 10 uM after 48 hrs by sulforhodamine B assay; settings: HOP-92, 48 h, read-out: Activity
# NCI-H322M = test: Antitumor activity against human NCI-H322M cells assessed as cell growth at 10 uM after 48 hrs by sulforhodamine B assay; settings: read-out: Activity
# NCI-H460 = test: Antitumor activity against human NCI-H460 cells assessed as cell growth at 10 uM after 48 hrs by sulforhodamine B assay; settings: NCI-H460, 48 h, read-out: Activity
# COLO 205 = test: Antitumor activity against human COLO205 cells assessed as cell growth at 10 uM after 48 hrs by sulforhodamine B assay; settings: COLO 205, 48 h, read-out: Activity
# HCC 2998 = test: Antitumor activity against human HCC2998 cells assessed as cell growth at 10 uM after 48 hrs by sulforhodamine B assay; settings: HCC 2998, 48 h, read-out: Activity
# BT-549 = test: Antitumor activity against human BT549 cells assessed as cell growth at 10 uM after 48 hrs by sulforhodamine B assay; settings: BT-549, 48 h, read-out: Activity
# [1] = Antitumor activity against human Hs 578T cells assessed as cell growth at 10 uM after 48 hrs by sulforhodamine B assay; settings: read-out: Activity
# MCF7 = test: Antitumor activity against human MCF7 cells assessed as cell growth at 10 uM after 48 hrs by sulforhodamine B assay; settings: MCF7, 48 h, read-out: Activity
# MDA-MB-435 = test: Antitumor activity against human MDA-MB-435 cells assessed as cell growth at 10 uM after 48 hrs by sulforhodamine B assay; settings: MDA-MB-435, 48 h, read-out: Activity
# OVCAR-3 = test: Antitumor activity against human OVCAR-3 cells assessed as cell growth at 10 uM after 48 hrs by sulforhodamine B assay; settings: OVCAR-3, 48 h, read-out: Activity
# OVCAR-8 = test: Antitumor activity against human OVCAR8 cells assessed as cell growth at 10 uM after 48 hrs by sulforhodamine B assay; settings: OVCAR-8, 48 h, read-out: Activity
# SK-OV-3 = test: Antitumor activity against human SKOV3 cells assessed as cell growth at 10 uM after 48 hrs by sulforhodamine B assay; settings: SK-OV-3, 48 h, read-out: Activity
# CCRF-CEM = test: Antitumor activity against human CCRF-CEM cells assessed as cell growth at 10 uM after 48 hrs by sulforhodamine B assay; settings: read-out: Activity
# K562 = test: Antitumor activity against human K562 cells assessed as cell growth at 10 uM after 48 hrs by sulforhodamine B assay; settings: K562, 48 h, read-out: Activity
# [2] = Antitumor activity against human […] cells assessed as cell growth at 10 uM after 48 hrs by sulforhodamine B assay; settings: read-out: Activity
# SR = test: Antitumor activity against human SR cells assessed as cell growth at 10 uM after 48 hrs by sulforhodamine B assay; settings: read-out: Activity
# 786-0 = test: Antitumor activity against human 786-0 cells assessed as cell growth at 10 uM after 48 hrs by sulforhodamine B assay; settings: 786-0, 48 h, read-out: Activity
# CAKI-1 = test: Antitumor activity against human Caki1 cells assessed as cell growth at 10 uM after 48 hrs by sulforhodamine B assay; settings: CAKI-1, 48 h, read-out: Activity
# TK-10 = test: Antitumor activity against human TK10 cells assessed as cell growth at 10 uM after 48 hrs by sulforhodamine B assay; settings: TK-10, 48 h, read-out: Activity
# LOX IMVI = test: Antitumor activity against human LOXIMVI cells assessed as cell growth at 10 uM after 48 hrs by sulforhodamine B assay; settings: read-out: Activity
# M14 = test: Antitumor activity against human M14 cells assessed as cell growth at 10 uM after 48 hrs by sulforhodamine B assay; settings: M14, 48 h, read-out: Activity
# DU-145 = test: Antitumor activity against human DU145 cells assessed as cell growth at 10 uM after 48 hrs by sulforhodamine B assay; settings: DU-145, 48 h, read-out: Activity
# SF-268 = test: Antitumor activity against human SF268 cells assessed as cell growth at 10 uM after 48 hrs by sulforhodamine B assay; settings: SF-268, 48 h, read-out: Activity
# SF-539 = test: Antitumor activity against human SF539 cells assessed as cell growth at 10 uM after 48 hrs by sulforhodamine B assay; settings: SF-539, 48 h, read-out: Activity
# SNB-75 = test: Antitumor activity against human SNB75 cells assessed as cell growth at 10 uM after 48 hrs by sulforhodamine B assay; settings: SNB-75, 48 h, read-out: Activity
# Rattus norvegicus [3] = test: Antiinflammatory activity in Wister albino rat assessed as inhibition of carrageenan-induced paw oedema at 50 mg/kg, ip administered 1 hr before carrageenan challenge measured after 2 hrs of induction of inflammation relative to control; settings: route intraperitoneal
# Rattus norvegicus [4] = test: Antiinflammatory activity in Wister albino rat assessed as inhibition of carrageenan-induced paw oedema at 50 mg/kg, ip administered 1 hr before carrageenan challenge measured after 3 hrs of induction of inflammation relative to control; settings: route intraperitoneal
# SF-295 = test: Antitumor activity against human SF295 cells assessed as cell growth at 10 uM after 48 hrs by sulforhodamine B assay; settings: SF-295, 48 h, read-out: Activity
SMILES,growth at 10 µM (A549),growth at 10 µM (HOP-92),growth at 10 µM (NCI-H322M),growth at 10 µM (NCI-H460),growth at 10 µM (COLO 205),growth at 10 µM (HCC 2998),growth at 10 µM (BT-549),growth at 10 µM [1],growth at 10 µM (MCF7),growth at 10 µM (MDA-MB-435),growth at 10 µM (OVCAR-3),growth at 10 µM (OVCAR-8),growth at 10 µM (SK-OV-3),growth at 10 µM (CCRF-CEM),growth at 10 µM (K562),growth at 10 µM [2],growth at 10 µM (SR),growth at 10 µM (786-0),growth at 10 µM (CAKI-1),growth at 10 µM (TK-10),other results
CN1C/C(=C\c2ccc(-c3cccs3)cc2)C(=O)[C@]2(C1)[C@@H](c1ccc(-c3cccs3)cc1)CN(C)[C@@]21C(=O)N(C)c2ccccc21,58%,41.1%,75%,52.1%,69%,40.6%,79.7%,79.3%,50.4%,40.6%,33.6%,65.7%,59.5%,56.4%,59.5%,10.6%,30.5%,65.8%,57.2%,78.8%,growth at 10 µM (LOX IMVI): 65%; growth at 10 µM (M14): 58.5%; growth at 10 µM (DU-145): 67.4%; growth at 10 µM (SF-268): 72.4%; growth at 10 µM (SF-539): 75.4%; growth at 10 µM (SNB-75): 64.5%; inhibition in vivo at 50 mg/kg (Rattus norvegicus [3]): 68.3%; inhibition in vivo at 50 mg/kg (Rattus norvegicus [4]): 73.9%
COc1ccc(/C=C2\CN(C)C[C@@]3(C2=O)[C@@H](c2ccccc2)CN(C)[C@@]32C(=O)Nc3ccccc32)cc1,44.4%,46.7%,79.7%,52.3%,67.4%,65.5%,56.3%,74.7%,30.9%,60.7%,50.3%,52.4%,75.6%,45.4%,73.3%,20.7%,52.3%,57.2%,54.3%,73.1%,growth at 10 µM (LOX IMVI): 65.3%; growth at 10 µM (M14): 55.6%; growth at 10 µM (DU-145): 70.3%; growth at 10 µM (SF-268): 61.8%; growth at 10 µM (SF-539): 74%; growth at 10 µM (SNB-75): 59.4%; inhibition in vivo at 50 mg/kg (Rattus norvegicus [3]): 76.4%; inhibition in vivo at 50 mg/kg (Rattus norvegicus [4]): 76.5%
CN1C/C(=C\c2ccc(Cl)cc2)C(=O)[C@]2(C1)[C@@H](c1ccc(Cl)cc1)CN(C)[C@@]21C(=O)N(C)c2ccccc21,70%,61.6%,79.1%,71.5%,99.6%,71.9%,80.3%,97.3%,86.4%,87.8%,60.5%,79.5%,85.2%,31.5%,30.4%,38%,70.3%,73.9%,56.6%,81.8%,growth at 10 µM (LOX IMVI): 73.9%; growth at 10 µM (M14): 77.8%; growth at 10 µM (DU-145): 88.4%; growth at 10 µM (SF-268): 83.6%; growth at 10 µM (SF-295): 65.6%; growth at 10 µM (SF-539): 78.1%; growth at 10 µM (SNB-75): 65.2%; inhibition in vivo at 50 mg/kg (Rattus norvegicus [3]): 62.2%; inhibition in vivo at 50 mg/kg (Rattus norvegicus [4]): 44.5%
CN1C/C(=C\c2ccc(Cl)cc2)C(=O)[C@]2(C1)[C@@H](c1ccc(Cl)cc1)CN(C)[C@@]21C(=O)Nc2ccccc21,62.4%,56.2%,68.7%,66.7%,92.7%,70.7%,63.9%,79.7%,44.9%,61.1%,48.4%,69.4%,80.6%,51.3%,45.1%,38.5%,67.5%,71.8%,45.8%,88.6%,growth at 10 µM (LOX IMVI): 72.3%; growth at 10 µM (M14): 78.3%; growth at 10 µM (DU-145): 83.8%; growth at 10 µM (SF-268): 60.6%; growth at 10 µM (SF-295): 64.5%; growth at 10 µM (SF-539): 83.3%; growth at 10 µM (SNB-75): 56.7%; inhibition in vivo at 50 mg/kg (Rattus norvegicus [3]): 63%; inhibition in vivo at 50 mg/kg (Rattus norvegicus [4]): 49.6%
